The text below walks through data of ChEMBL document CHEMBL5291721, “A preclinical secondary pharmacology resource illuminates target-adverse drug reaction associations of marketed drugs” (Nat Commun, 2023).

In assay [1] the target is Growth hormone secretagogue receptor type 1 (Homo sapiens, UniProt Q92847).
The target of assay [2] is Beta-1 adrenergic receptor (Homo sapiens, UniProt P08588). Format: functional.
The target in the next assay is T1, B2 bradykinin receptor (Homo sapiens, UniProt P30411).
T1 sequence (P30411 whole entry): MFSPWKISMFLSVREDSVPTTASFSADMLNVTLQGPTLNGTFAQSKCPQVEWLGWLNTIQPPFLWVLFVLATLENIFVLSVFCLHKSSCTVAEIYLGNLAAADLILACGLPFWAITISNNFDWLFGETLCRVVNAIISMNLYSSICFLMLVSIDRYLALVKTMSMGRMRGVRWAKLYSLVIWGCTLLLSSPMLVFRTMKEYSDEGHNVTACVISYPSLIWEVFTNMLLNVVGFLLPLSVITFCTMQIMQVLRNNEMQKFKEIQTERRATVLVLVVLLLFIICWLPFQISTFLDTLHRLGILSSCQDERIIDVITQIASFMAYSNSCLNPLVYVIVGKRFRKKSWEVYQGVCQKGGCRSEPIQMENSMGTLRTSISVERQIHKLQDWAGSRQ

Assay [3] addresses T2, Alpha-1A adrenergic receptor (Homo sapiens, UniProt P35348).
T2 sequence (P35348 whole entry): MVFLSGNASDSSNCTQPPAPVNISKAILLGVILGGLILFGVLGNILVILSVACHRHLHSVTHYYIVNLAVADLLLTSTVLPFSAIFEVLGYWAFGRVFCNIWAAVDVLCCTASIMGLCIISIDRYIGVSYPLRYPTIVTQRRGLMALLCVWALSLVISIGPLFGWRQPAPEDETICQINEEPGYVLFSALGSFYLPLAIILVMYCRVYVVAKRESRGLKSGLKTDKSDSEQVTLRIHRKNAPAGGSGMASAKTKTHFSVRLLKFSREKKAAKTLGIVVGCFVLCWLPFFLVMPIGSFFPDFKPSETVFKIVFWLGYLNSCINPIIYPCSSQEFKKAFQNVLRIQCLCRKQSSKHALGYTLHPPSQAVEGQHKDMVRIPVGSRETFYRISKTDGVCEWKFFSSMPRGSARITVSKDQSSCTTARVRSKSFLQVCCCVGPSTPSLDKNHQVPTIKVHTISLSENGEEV
The class given is functional, cell-based.

For the next assay, the target named is D(3) dopamine receptor (Homo sapiens, UniProt P35462).
Chain of D(3) dopamine receptor (P35462 whole entry): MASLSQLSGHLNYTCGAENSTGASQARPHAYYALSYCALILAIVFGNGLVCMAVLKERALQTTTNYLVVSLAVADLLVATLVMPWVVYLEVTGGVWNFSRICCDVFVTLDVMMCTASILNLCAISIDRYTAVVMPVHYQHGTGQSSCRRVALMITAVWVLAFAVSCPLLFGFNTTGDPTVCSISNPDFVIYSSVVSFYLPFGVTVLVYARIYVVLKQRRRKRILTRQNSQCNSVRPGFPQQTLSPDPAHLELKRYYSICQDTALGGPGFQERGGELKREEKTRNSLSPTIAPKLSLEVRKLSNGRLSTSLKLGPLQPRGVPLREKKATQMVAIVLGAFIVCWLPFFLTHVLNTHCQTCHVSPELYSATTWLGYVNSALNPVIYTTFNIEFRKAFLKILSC
The target of assay [4] is T3, Type-1 angiotensin II receptor (Homo sapiens, UniProt P30556).
T3 sequence (P30556 whole entry): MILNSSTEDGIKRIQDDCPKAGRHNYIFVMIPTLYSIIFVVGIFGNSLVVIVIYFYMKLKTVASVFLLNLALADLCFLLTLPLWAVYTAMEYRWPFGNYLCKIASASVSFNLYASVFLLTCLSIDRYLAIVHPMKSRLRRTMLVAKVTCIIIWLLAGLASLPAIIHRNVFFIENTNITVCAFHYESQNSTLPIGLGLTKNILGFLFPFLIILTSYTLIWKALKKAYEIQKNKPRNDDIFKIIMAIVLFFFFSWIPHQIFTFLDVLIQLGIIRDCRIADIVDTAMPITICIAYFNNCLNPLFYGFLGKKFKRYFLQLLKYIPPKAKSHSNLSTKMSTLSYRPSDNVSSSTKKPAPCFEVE

A further assay concerns the target T4, Adenosine receptor A3 (Homo sapiens, UniProt P0DMS8).
T4 sequence (P0DMS8 whole entry): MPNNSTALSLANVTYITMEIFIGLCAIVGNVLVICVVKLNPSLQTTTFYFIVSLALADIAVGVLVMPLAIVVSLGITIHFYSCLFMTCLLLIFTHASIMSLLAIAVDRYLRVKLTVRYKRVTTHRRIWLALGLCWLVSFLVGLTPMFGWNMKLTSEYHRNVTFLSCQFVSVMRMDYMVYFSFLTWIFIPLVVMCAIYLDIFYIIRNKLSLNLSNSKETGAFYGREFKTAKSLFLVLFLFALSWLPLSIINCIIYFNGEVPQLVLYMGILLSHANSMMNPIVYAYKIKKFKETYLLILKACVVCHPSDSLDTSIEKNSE

The target in assay [5] is cGMP-inhibited 3',5'-cyclic phosphodiesterase 3A (Homo sapiens, UniProt Q14432). The class given is functional.
Chain of cGMP-inhibited 3',5'-cyclic phosphodiesterase 3A (Q14432 whole entry): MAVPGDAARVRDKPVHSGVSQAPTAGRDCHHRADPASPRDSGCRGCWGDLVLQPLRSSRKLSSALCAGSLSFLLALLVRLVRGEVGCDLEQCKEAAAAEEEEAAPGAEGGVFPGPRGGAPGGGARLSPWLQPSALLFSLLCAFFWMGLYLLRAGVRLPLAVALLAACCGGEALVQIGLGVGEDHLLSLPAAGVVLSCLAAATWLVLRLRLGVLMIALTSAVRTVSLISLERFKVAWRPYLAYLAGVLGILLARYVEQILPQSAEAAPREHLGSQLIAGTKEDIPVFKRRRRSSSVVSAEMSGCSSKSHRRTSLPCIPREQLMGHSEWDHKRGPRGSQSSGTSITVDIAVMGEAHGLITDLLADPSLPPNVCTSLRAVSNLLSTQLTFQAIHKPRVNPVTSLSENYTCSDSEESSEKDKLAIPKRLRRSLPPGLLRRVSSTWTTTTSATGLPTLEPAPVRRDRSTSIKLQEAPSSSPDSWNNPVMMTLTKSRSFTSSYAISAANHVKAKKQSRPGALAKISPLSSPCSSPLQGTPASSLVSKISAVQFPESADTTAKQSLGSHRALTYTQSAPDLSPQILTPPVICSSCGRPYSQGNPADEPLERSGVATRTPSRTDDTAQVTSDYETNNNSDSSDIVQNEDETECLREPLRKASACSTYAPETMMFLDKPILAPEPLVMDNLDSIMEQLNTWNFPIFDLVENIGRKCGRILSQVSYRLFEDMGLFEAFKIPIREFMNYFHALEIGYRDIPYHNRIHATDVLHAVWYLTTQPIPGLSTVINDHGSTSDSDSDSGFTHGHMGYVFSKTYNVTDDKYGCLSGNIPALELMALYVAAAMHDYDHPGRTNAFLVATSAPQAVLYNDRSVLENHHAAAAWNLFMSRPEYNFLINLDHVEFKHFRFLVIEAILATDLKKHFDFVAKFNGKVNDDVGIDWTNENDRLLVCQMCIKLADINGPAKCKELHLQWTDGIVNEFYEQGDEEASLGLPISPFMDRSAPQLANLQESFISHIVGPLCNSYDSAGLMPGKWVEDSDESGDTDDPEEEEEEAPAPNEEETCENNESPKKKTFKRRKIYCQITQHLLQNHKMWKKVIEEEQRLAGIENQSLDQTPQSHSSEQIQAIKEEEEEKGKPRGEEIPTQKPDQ
Assay [6] deals with 5-hydroxytryptamine receptor 2B (Homo sapiens, UniProt P41595). Format: functional, cell-based.
Chain of 5-hydroxytryptamine receptor 2B (P41595 whole entry): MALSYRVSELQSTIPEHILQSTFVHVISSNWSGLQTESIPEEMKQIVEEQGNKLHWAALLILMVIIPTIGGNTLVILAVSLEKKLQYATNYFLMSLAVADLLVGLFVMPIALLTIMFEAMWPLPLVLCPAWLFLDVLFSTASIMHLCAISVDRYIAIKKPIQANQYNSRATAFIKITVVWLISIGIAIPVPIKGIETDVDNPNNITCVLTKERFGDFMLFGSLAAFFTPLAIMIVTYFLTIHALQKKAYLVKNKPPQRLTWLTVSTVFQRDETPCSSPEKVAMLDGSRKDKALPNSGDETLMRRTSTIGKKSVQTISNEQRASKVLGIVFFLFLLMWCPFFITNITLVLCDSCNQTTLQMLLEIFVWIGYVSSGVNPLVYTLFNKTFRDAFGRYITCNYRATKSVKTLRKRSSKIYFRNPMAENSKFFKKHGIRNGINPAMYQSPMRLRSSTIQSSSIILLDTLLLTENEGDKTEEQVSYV
The target in assay [7] is T5, Alpha-2A adrenergic receptor (Homo sapiens, UniProt P08913).
T5 sequence (P08913 whole entry): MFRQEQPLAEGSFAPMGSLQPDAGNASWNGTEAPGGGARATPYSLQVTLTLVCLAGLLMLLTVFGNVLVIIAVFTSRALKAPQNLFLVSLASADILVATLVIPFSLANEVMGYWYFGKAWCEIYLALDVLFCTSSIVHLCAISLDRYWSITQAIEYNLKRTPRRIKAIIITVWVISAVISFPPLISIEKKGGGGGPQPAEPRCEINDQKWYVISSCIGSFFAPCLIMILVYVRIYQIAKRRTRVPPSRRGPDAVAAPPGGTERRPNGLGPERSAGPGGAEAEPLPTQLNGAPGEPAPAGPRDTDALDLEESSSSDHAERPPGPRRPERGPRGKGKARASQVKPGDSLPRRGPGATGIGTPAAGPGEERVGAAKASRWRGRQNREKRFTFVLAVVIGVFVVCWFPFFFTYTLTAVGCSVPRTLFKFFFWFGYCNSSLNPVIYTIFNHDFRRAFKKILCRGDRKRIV
The class given is functional, cell-based.
Note: assay procedure not described here.

Chain of Beta-1 adrenergic receptor (P08588 whole entry): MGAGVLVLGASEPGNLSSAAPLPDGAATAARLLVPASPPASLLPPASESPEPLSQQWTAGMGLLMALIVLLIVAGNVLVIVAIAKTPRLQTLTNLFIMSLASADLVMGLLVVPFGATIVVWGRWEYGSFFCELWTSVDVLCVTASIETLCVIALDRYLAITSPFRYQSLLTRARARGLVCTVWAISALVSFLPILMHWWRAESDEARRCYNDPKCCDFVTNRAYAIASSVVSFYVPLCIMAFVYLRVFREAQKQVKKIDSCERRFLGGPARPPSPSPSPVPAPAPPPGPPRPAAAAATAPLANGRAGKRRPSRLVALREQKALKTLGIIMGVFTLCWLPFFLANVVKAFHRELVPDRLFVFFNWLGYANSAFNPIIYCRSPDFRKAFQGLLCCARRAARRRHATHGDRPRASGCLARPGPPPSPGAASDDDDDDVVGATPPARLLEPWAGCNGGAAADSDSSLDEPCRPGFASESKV
Chain of Growth hormone secretagogue receptor type 1 (Q92847 whole entry): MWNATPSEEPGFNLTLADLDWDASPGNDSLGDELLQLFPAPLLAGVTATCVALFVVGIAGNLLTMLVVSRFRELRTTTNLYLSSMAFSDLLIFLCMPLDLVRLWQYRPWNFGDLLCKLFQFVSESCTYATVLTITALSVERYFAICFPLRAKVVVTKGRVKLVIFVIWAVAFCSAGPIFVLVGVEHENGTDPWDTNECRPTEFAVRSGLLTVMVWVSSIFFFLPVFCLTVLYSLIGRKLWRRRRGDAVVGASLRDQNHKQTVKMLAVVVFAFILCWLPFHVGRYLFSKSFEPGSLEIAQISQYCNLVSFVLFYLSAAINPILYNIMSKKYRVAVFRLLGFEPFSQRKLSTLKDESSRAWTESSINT

As for `COc1cc(C(=O)OCc2cccc(COC(=O)c3cc(OC)c(OC)c(OC)c3)n2)cc(OC)c1OC` [PIROZADIL], the concentration at half-maximal activity (AC50) (in assay [1]; in assay [2]; on B2 bradykinin receptor; in assay [3]; on D(3) dopamine receptor; in [4]) was over 30 µM each time. In addition, the AC50 (at Adenosine receptor A3; in assay [5]; in assay [6]; in assay [7]) was over 30 µM throughout.
Regarding `Oc1cc(O)c(Cl)cn1`, the AC50 (in [1]; in assay [2]; at B2 bradykinin receptor; in assay [3]; on D(3) dopamine receptor; in [4]) was over 30 µM throughout. For the same compound, the AC50 (on Adenosine receptor A3; in [5]; in assay [6]; in [7]) was over 30 µM throughout.
Regarding `CCC(NC(C)C)C(O)c1ccc(O)c2[nH]c(=O)ccc12` (stereo not drawn) [PROCATEROL], the concentration at half-maximal activity (AC50) in assay [1] is over 30 µM; in [2] it was 17 µM; on B2 bradykinin receptor it was over 30 µM; in assay [3], over 30 µM; at D(3) dopamine receptor, over 30 µM; in assay [4], over 30 µM. Further, the AC50 (on Adenosine receptor A3; in assay [5]; in assay [6]; in assay [7]) was over 30 µM in each case.
In the case of `COc1ccc2cc(CCC(C)=O)ccc2c1` [NABUMETONE], the concentration at half-maximal activity (AC50) in [1] was over 10 µM; in [2] it was over 10 µM; on B2 bradykinin receptor, over 10 µM; in assay [3], over 30 µM; on D(3) dopamine receptor, over 30 µM; in assay [4], over 10 µM. Further, the half-maximal activity concentration (AC50) at Adenosine receptor A3 was over 10 µM; in [5] it was over 30 µM; in [6] it was over 10 µM; in assay [7], over 10 µM.
Turning to `CC(CN(C)C)C(C)(O)Cc1ccc(Cl)cc1` (stereo not drawn) [CLOBUTINOL], the half-maximal activity concentration (AC50) (in [1]; in assay [2]; on B2 bradykinin receptor; in assay [3]; on D(3) dopamine receptor; in assay [4]) was over 30 µM in each case. Also, the AC50 at Adenosine receptor A3 is over 30 µM; in assay [5] it was over 30 µM; in assay [6], over 10 µM; in assay [7], over 10 µM.
For the compound `CC(=O)c1ccc(S(=O)(=O)NC(=O)NC2CCCCC2)cc1` [ACETOHEXAMIDE], the concentration at half-maximal activity (AC50) is over 10 µM in [1]; over 10 µM in [2]; over 10 µM at B2 bradykinin receptor; over 30 µM in assay [3]; over 30 µM at D(3) dopamine receptor; over 10 µM in assay [4]. The concentration at half-maximal activity (AC50) is over 10 µM at Adenosine receptor A3, over 30 µM in [5], over 30 µM in assay [6] and over 30 µM in [7].
As to `C=CCN1CCc2nc(N)sc2CC1` [TALIPEXOLE], the AC50 in assay [1] was over 30 µM; in [2], over 30 µM; on B2 bradykinin receptor, over 30 µM; in [3] it was 2.5 µM; on D(3) dopamine receptor, 0.48 µM; in assay [4], over 30 µM. The AC50 is over 30 µM on Adenosine receptor A3, over 30 µM in [5], over 30 µM in [6] and 0.083 µM in [7].
Regarding `CCc1nc(N)nc(N)c1-c1ccc(Cl)cc1` [PYRIMETHAMINE], the AC50 was over 10 µM in [1]; over 10 µM in assay [2]; over 10 µM on B2 bradykinin receptor; over 30 µM in assay [3]; over 30 µM at D(3) dopamine receptor; over 10 µM in assay [4]. For the same compound, the AC50 at Adenosine receptor A3 was over 10 µM; in assay [5], over 30 µM; in assay [6], 37 µM; in assay [7], 9.8 µM.
Take `CC/C=C\C/C=C\C/C=C\C/C=C\C/C=C\CCCC(=O)OCC` [ICOSAPENT ETHYL]: the AC50 (in assay [1]; in assay [2]; at B2 bradykinin receptor; in assay [3]; on D(3) dopamine receptor; in assay [4]) was over 30 µM in each case. In addition, the AC50 was 18 µM at Adenosine receptor A3, over 30 µM in assay [5], over 30 µM in assay [6] and over 30 µM in assay [7].
With `CO[C@H]1C[C@H](O[C@H]2CC[C@@]3(C)[C@H](CC[C@@H]4[C@@H]3CC[C@]3(C)[C@@H](C5=CC(=O)OC5)[C@@H](OC(C)=O)C[C@]43O)C2)O[C@@H](C)[C@@H]1O` [OLEANDRIN], the half-maximal activity concentration (AC50) (in assay [3]; on D(3) dopamine receptor; in assay [5]; in assay [7]) was over 30 µM throughout.
Take `CC(C)(C)NCC(O)c1ccccc1Cl` (stereo not drawn) [TULOBUTEROL]: the AC50 (in [1]; at B2 bradykinin receptor; in assay [3]; at D(3) dopamine receptor; in assay [4]; on Adenosine receptor A3) was over 30 µM in each case. In addition, the half-maximal activity concentration (AC50) in [5], in assay [6] and in assay [7] was over 30 µM each time.
In the case of `CC(C(=O)O)c1ccc2c(c1)CC(=O)c1ccccc1S2` (stereo not drawn) [ZALTOPROFEN], the AC50 (in assay [1]; on B2 bradykinin receptor; in assay [3]; at D(3) dopamine receptor; in assay [4]; on Adenosine receptor A3) was over 30 µM throughout. For the same compound, the half-maximal activity concentration (AC50) in assay [5], in [6] and in [7] was over 30 µM each time.
As to `COc1cc(N)c(Cl)cc1C(=O)NC1CCN(CCCOc2ccc(F)cc2)CC1OC` (stereo not drawn) [CISAPRIDE], the AC50 in assay [1] is over 30 µM; in [2], over 10 µM; at B2 bradykinin receptor, over 30 µM; in [3], over 30 µM; on D(3) dopamine receptor, 6.3 µM; in assay [4], over 30 µM. Moreover, the AC50 (at Adenosine receptor A3; in assay [5]) was over 30 µM throughout.
For `O=C(CCCN1CCC(O)(c2ccc(Br)cc2)CC1)c1ccc(F)cc1` [BROMPERIDOL], the AC50 in [1] was 6.9 µM; in assay [2], over 30 µM; on B2 bradykinin receptor, over 30 µM; in [3] it was over 30 µM; at D(3) dopamine receptor, 0.041 µM; in [4], over 30 µM. For the same compound, the half-maximal activity concentration (AC50) (on Adenosine receptor A3; in assay [5]; in assay [6]) was over 30 µM throughout.
In the case of `CO/N=C(\C(=O)N[C@@H]1C(=O)N2C(C(=O)O)=CCS[C@H]12)c1csc(N)n1` [CEFTIZOXIME], the concentration at half-maximal activity (AC50) in assay [1] is over 30 µM; in assay [2] it was over 30 µM; on B2 bradykinin receptor, over 10 µM; in [3] it was over 30 µM; in assay [4], over 30 µM; on Adenosine receptor A3, over 30 µM. In addition, the AC50 in assay [5], in [6] and in assay [7] was over 30 µM each time.
